The target of the test is human PCSK9 (Homo sapiens, UniProt Q8NBP7). In words: PCSK9 ligand binding TR-FRET assay (interference with binding of human PCSK9 to human LDLR). Conditions: for Max % inhibition: PCSK9 FRET assay, efficacy (Amax), 100% = 1 uM unlabeled human PCSK9, 0% = DMSO; for IC50: TR-FRET, human PCSK9 Alexa Fluor 647 / human LDLR extracellular domain-Europium Kryptate, read-out: PCSK9 FRET Assay IC50. The gist of the method:
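Threefold compound dilutions were pre-incubated 30 min with PCSK9, after which 4 nM Europium Kryptate-tagged human LDLR ectodomain was added for a further 2 h.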
(In TR-FRET formats the signal depends on donor and acceptor labels being close together.)

Chain of human PCSK9 (Q8NBP7 153-692): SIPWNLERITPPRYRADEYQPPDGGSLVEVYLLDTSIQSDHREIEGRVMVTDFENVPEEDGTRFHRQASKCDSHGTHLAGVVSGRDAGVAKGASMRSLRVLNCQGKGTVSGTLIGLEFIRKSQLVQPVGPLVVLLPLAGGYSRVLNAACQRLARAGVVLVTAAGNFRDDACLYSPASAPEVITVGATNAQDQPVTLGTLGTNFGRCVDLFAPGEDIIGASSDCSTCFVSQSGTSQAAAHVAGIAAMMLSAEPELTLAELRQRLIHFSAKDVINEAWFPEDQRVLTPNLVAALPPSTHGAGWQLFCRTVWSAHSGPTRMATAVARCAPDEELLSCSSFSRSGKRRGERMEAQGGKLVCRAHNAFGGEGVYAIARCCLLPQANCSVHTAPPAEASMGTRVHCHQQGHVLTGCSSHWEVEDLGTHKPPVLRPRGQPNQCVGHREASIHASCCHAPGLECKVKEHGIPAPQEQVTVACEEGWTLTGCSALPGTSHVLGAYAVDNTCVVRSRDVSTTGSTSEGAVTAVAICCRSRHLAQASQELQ
Chain of human PCSK9 (Q8NBP7 31-152 partner limits assumed): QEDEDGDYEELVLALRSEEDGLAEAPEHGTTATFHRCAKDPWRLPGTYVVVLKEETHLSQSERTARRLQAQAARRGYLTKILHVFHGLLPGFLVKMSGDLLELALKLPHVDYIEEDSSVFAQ

The term IC50 denotes the point on the concentration scale where inhibition reaches its midpoint. In the case of `COC[C@@H]1NC(=O)[C@H](C)N(Cc2ccc(Cl)cc2Oc2ccc(-c3cnc(CN4CCOCC4)n3C)cc2)C(=O)C[C@@H](Cc2ccccc2)C(=O)N(C)[C@@H](C)CNC(=O)C[C@H](Cc2ccc(Cl)cc2)N(C)C1=O` [Compound 205, (2S,5S,8S,13S,16R)-16-benzyl-1-(4-chloro-2-(4-(1-methyl-2-(morpholinomethyl)-1H-imidazol-5-yl)phenoxy)benzyl)-8-(4-chlorobenzyl)-5-(methoxymethyl)-2,7,13,14-tetramethyl-1,4,7,11,14-pentaazacyclooctadecane-3,6,10,15,18-pentaone], the Max % inhibition is given as 93.20% and the IC50 stood at 2 nM.
In the same order, the values of `COC[C@@H]1NC(=O)[C@H](C)N(Cc2ccc(Cl)cc2Oc2ccc(-c3cnc(CN4CCCC4)n3C)cc2)C(=O)C[C@@H](Cc2cccc(OC(F)(F)F)c2)C(=O)N(C)[C@@H](C)CNC(=O)C[C@H](Cc2ccc(Cl)cc2)N(C)C1=O` [Compound 206, (2S,5S,8S,13S,16R)-1-(4-chloro-2-(4-(1-methyl-2-(pyrrolidin-1-ylmethyl)-1H-imidazol-5-yl)phenoxy)benzyl)-8-(4-chlorobenzyl)-5-(methoxymethyl)-2,7,13,14-tetramethyl-16-(3-(trifluoromethoxy)benzyl)-1,4,7,11,14-pentaazacyclooctadecane-3,6,10,15,18-pentaone] are 99.72% and 5.8 nM.
In the same order, the values of `CC[C@H]1C(=O)N[C@@H](CO)C(=O)N(C)[C@@H](Cc2ccc(Cl)cc2)CC(=O)NC[C@H](C)N(C)C(=O)[C@H](Cc2ccccc2)CC(=O)N1Cc1ccc(Cl)cc1Oc1ccc(-c2cnc(CN(C)C)n2C)cc1` [Compound 207, (2S,5S,8S,13S,16R)-16-benzyl-1-(4-chloro-2-(4-(2-((dimethylamino)methyl)-1-methyl-1H-imidazol-5-yl)phenoxy)benzyl)-8-(4-chlorobenzyl)-2-ethyl-5-(hydroxymethyl)-7,13,14-trimethyl-1,4,7,11,14-pentaazacyclooctadecane-3,6,10,15,18-pentaone] are 102.49% and 2.2 nM.
The matching figures for `COC[C@@H]1NC(=O)[C@H](C)N(Cc2c(F)cc(F)cc2Oc2ccc(-c3cnc(CN(C)C)n3C)cc2)C(=O)C[C@@H](Cc2ccccc2)C(=O)N(C)[C@H]2CCCC[C@@H]2NC(=O)C[C@H](Cc2ccc(Cl)cc2)N(C)C1=O` [Compound 208, (4S,7S,10S,14R,16aS,20aS)-14-benzyl-4-(4-chlorobenzyl)-11-(2-(4-(2-((dimethylamino)methyl)-1-methyl-1H-imidazol-5-yl)phenoxy)-4,6-difluorobenzyl)-7-(methoxymethyl)-5,10,16-trimethylhexadecahydrobenzo[l][1,4,7,11,14]pentaazacyclooctadecine-2,6,9,12,15(3H)-pentaone]: 87.45% and 2.7 nM.
For `CC[C@H]1C(=O)N[C@@H](COC)C(=O)N(C)[C@@H](Cc2ccc(Cl)c(F)c2)CC(=O)NC[C@H](C)N(C)C(=O)[C@H](Cc2ccccc2)CC(=O)N1Cc1ccc(Cl)cc1Oc1ccc(-c2cnc(CN(C)C)n2C)cc1` [Compound 209, (2S,5S,8S,13S,16R)-16-benzyl-1-(4-chloro-2-(4-(2-((dimethylamino)methyl)-1-methyl-1H-imidazol-5-yl)phenoxy)benzyl)-8-(4-chloro-3-fluorobenzyl)-2-ethyl-5-(methoxymethyl)-7,13,14-trimethyl-1,4,7,11,14-pentaazacyclooctadecane-3,6,10,15,18-pentaone], the Max % inhibition was found to be 98.10% and the IC50 was 4.9 nM.
The matching figures for `COC[C@@H]1NC(=O)[C@H](C)N(Cc2cccnc2Oc2ccc(-c3cnc(CN(C)C)n3C)cc2)C(=O)C[C@@H](Cc2ccccc2)C(=O)N(C)[C@@H](C)CNC(=O)C[C@H](Cc2ccc(Cl)cc2)N(C)C1=O` [Compound 210, (2S,5S,8S,13S,16R)-16-benzyl-8-(4-chlorobenzyl)-1-((2-(4-(2-((dimethylamino)methyl)-1-methyl-1H-imidazol-5-yl)phenoxy)pyridin-3-yl)methyl)-5-(methoxymethyl)-2,7,13,14-tetramethyl-1,4,7,11,14-pentaazacyclooctadecane-3,6,10,15,18-pentaone]: 91.38% and 14.7 nM.
The matching figures for `COC[C@@H]1NC(=O)[C@H](CCS(C)(=O)=O)N(Cc2ccc(Cl)cc2Oc2ccc(-c3cnc(CN(C)C)n3C)cc2)C(=O)C[C@@H](Cc2ccccc2)C(=O)N(C)[C@@H](C)CNC(=O)C[C@H](Cc2ccc(Cl)cc2)N(C)C1=O` [Compound 211, (2S,5S,8S,13S,16R)-16-benzyl-1-(4-chloro-2-(4-(2-((dimethylamino)methyl)-1-methyl-1H-imidazol-5-yl)phenoxy)benzyl)-8-(4-chlorobenzyl)-5-(methoxymethyl)-7,13,14-trimethyl-2-(2-(methylsulfonyl)ethyl)-1,4,7,11,14-pentaazacyclooctadecane-3,6,10,15,18-pentaone]: 102.01% and 3.9 nM.
For `COC[C@@H]1NC(=O)[C@H](C)N(Cc2ccc(Cl)cc2Oc2ccc(-c3cnc4c(c3)CN(C(=O)[C@@H]3CCNC3)CC4)cc2)C(=O)C[C@@H](Cc2ccccc2)C(=O)N(C)[C@@H](C)CNC(=O)C[C@H](Cc2ccc(Cl)cc2)N(C)C1=O` [Compound 212, (2S,5S,8S,13S,16R)-16-benzyl-1-(4-chloro-2-(4-(6-((R)-pyrrolidine-3-carbonyl)-5,6,7,8-tetrahydro-1,6-naphthyridin-3-yl)phenoxy)benzyl)-8-(4-chlorobenzyl)-5-(methoxymethyl)-2,7,13,14-tetramethyl-1,4,7,11,14-pentaazacyclooctadecane-3,6,10,15,18-pentaone], the Max % inhibition was determined as 71.82% and the IC50 was 5.4 nM.
In the same order, the values of `C[C@H]1CNC(=O)C[C@H](Cc2ccc(Cl)cc2)N(C)C(=O)[C@H](CC(=O)O)NC(=O)[C@H](C)N(Cc2ccc(Cl)cc2Oc2ccc(-c3cnc(CN(C)C)n3C)cc2)C(=O)C[C@@H](Cc2ccccc2)C(=O)N1C` [Compound 213, 2-((2S,5S,8S,13S,16R)-16-benzyl-1-(4-chloro-2-(4-(2-((dimethylamino)methyl)-1-methyl-1H-imidazol-5-yl)phenoxy)benzyl)-8-(4-chlorobenzyl)-2,7,13,14-tetramethyl-3,6,10,15,18-pentaoxo-1,4,7,11,14-pentaazacyclooctadecan-5-yl)acetic acid] are 91.51% and 3.5 nM.
The matching figures for `COC[C@@H]1NC(=O)[C@H](C)N(Cc2ncccc2Oc2ccc(-c3cnc(CN(C)C)n3C)cc2)C(=O)C[C@@H](Cc2ccccc2)C(=O)N(C)[C@@H](C)CNC(=O)C[C@H](Cc2ccc(Cl)cc2)N(C)C1=O` [Compound 214, (2S,5S,8S,13S,16R)-16-benzyl-8-(4-chlorobenzyl)-1-((3-(4-(2-((dimethylamino)methyl)-1-methyl-1H-imidazol-5-yl)phenoxy)pyridin-2-yl)methyl)-5-(methoxymethyl)-2,7,13,14-tetramethyl-1,4,7,11,14-pentaazacyclooctadecane-3,6,10,15,18-pentaone]: 97.43% and 33.2 nM.
The matching figures for `COC[C@@H]1NC(=O)[C@H](C)N(Cc2ccc(Cl)cc2Oc2ccc(-c3cnc(CN(C)C)n3C)cc2)C(=O)C[C@@H](C2CC2)C(=O)N(C)[C@@H](C)CNC(=O)C[C@H](Cc2ccc(Cl)cc2)N(C)C1=O` [Compound 215, (2S,5S,8S,13S)-1-(4-chloro-2-(4-(2-((dimethylamino)methyl)-1-methyl-1H-imidazol-5-yl)phenoxy)benzyl)-8-(4-chlorobenzyl)-16-cyclopropyl-5-(methoxymethyl)-2,7,13,14-tetramethyl-1,4,7,11,14-pentaazacyclooctadecane-3,6,10,15,18-pentaone]: 95.08% and 11 nM.
With `COC[C@@H]1NC(=O)[C@H](C)N(Cc2ccc(Cl)cc2Oc2ccc(-c3cnc(CN4CCCC4)n3C)cc2)C(=O)C[C@@H](Cc2ccccc2)C(=O)N(C)[C@@H](CCCCNC(C)=O)CNC(=O)C[C@H](Cc2ccc(Cl)cc2)N(C)C1=O.O=C(O)C(F)(F)F` [Compound 217, N-(4-((2S,5S,8S,13S,16R)-16-benzyl-1-(4-chloro-2-(4-(1-methyl-2-(pyrrolidin-1-ylmethyl)-1H-imidazol-5-yl)phenoxy)benzyl)-8-(4-chlorobenzyl)-5-(methoxymethyl)-2,7,14-trimethyl-3,6,10,15,18-pentaoxo-1,4,7,11,14-pentaazacyclooctadecan-13-yl)butyl)acetamide trifluoroacetate], the Max % inhibition is 95.74% and the IC50 was found to be 0.7 nM.
The matching figures for `COCCN(CCOC)C(=O)C[C@H]1C(=O)N[C@@H](COC)C(=O)N(C)[C@@H](Cc2ccc(Cl)cc2)CC(=O)N[C@H]2CCCC[C@@H]2N(C)C(=O)[C@H](Cc2ccccc2)CC(=O)N1Cc1ccc(Cl)cc1Oc1ccc(-c2cnc(CN(C)C)n2C)cc1` [Compound 218, 2-((4S,7S,10S,14R,16aS,20aS)-14-benzyl-11-(4-chloro-2-(4-(2-((dimethylamino)methyl)-1-methyl-1H-imidazol-5-yl)phenoxy)benzyl)-4-(4-chlorobenzyl)-7-(methoxymethyl)-5,16-dimethyl-2,6,9,12,15-pentaoxodocosahydrobenzo[l][1,4,7,11,14]pentaazacyclooctadecin-10-yl)-N ,N-bis(2-methoxyethyl)acetamide]: 105.97% and 1 nM.
The matching figures for `COC[C@@H]1NC(=O)[C@H](CC(=O)O)N(Cc2ccc(Cl)cc2Oc2ccc(-c3cnc(CN(C)C)n3C)cc2)C(=O)C[C@@H](Cc2ccccc2)C(=O)N(C)[C@H]2CCCC[C@@H]2NC(=O)C[C@H](Cc2ccc(Cl)cc2)N(C)C1=O` [Compound 219, 2-((4S,7S,10S,14R,16aS,20aS)-14-benzyl-11-(4-chloro-2-(4-(2-((dimethylamino)methyl)-1-methyl-1H-imidazol-5-yl)phenoxy)benzyl)-4-(4-chlorobenzyl)-7-(methoxymethyl)-5,16-dimethyl-2,6,9,12,15-pentaoxodocosahydrobenzo[l][1,4,7,11,14]pentaazacyclooctadecin-10-yl)acetic acid]: 105.15% and 0.9 nM.

These data come from patent US20230089867A1, “CYCLIC PENTAMER COMPOUNDS AS PROPROTEIN CONVERTASE SUBTILISIN/KEXIN TYPE 9 (PCSK9) INHIBITORS FOR THE TREATMENT OF METABOLIC DISORDER” (Novartis AG, priority 2018, published 2023).
